Measured values from ChEMBL document CHEMBL1158010, “New cytotoxic oxygenated fucosterols from the brown alga Turbinaria conoides” (1999).
In brackets after ≈: the same amount, converted by molar mass.

Tests used:
HT-29 = test: Cytotoxicity against human HT-29 cells after 6 days by MTT assay; settings: HT-29, 144 h, read-out: ED50 (the source's name)
P388 = test: Cytotoxicity against mouse P388 cells after 3 days; settings: P388, 72 h, read-out: ED50 (the source's name)
A549 = test: Cytotoxicity against human A549 cells after 6 days by MTT assay; settings: A549, 144 h, read-out: ED50 (the source's name)
KB = test: Cytotoxicity against human KB cells after 3 days by MTT assay; settings: 72 h, read-out: ED50 (the source's name)

Compound | EC50 (HT-29) | EC50 (P388) | EC50 (A549) | EC50 (KB)
C/C=C(\CC[C@@H](C)[C@H]1CC[C@H]2[C@@H]3C[C@@H](O)C4=CC(=O)CC[C@]4(C)[C@H]3CC[C@]12C)C(C)C | 1.2 µg/mL (≈ 2.81 µM) | 0.9 µg/mL (≈ 2.11 µM) | 2.3 µg/mL (≈ 5.39 µM) | 4.6 µg/mL (≈ 10.8 µM)
C/C=C(\CC[C@@H](C)[C@H]1CC[C@H]2[C@@H]3CCC4=CC(=O)CC[C@]4(C)[C@H]3CC[C@]12C)C(C)C | > 50 µg/mL | > 50 µg/mL | > 50 µg/mL | > 50 µg/mL
C=CC(CC[C@@H](C)[C@H]1CC[C@H]2[C@@H]3CC(=O)C4=CC(=O)CC[C@]4(C)[C@H]3CC[C@]12C)(OO)C(C)C (stereo not given in full) | 1.4 µg/mL (≈ 3.07 µM) | 0.8 µg/mL (≈ 1.75 µM) | 2.5 µg/mL (≈ 5.47 µM) | 4 µg/mL (≈ 8.76 µM)
C=CC(CC[C@@H](C)[C@H]1CC[C@H]2[C@@H]3C[C@@H](O)C4=CC(=O)CC[C@]4(C)[C@H]3CC[C@]12C)(OO)C(C)C (stereo not given in full) | 1.7 µg/mL (≈ 3.71 µM) | 0.4 µg/mL (≈ 0.872 µM) | 1.8 µg/mL (≈ 3.92 µM) | 1.8 µg/mL (≈ 3.92 µM)
C/C=C(\CC[C@@H](C)[C@H]1CC[C@H]2[C@@H]3CC(=O)C4=CC(=O)CC[C@]4(C)[C@H]3CC[C@]12C)C(C)C | 0.4 µg/mL (≈ 0.942 µM) | 0.6 µg/mL (≈ 1.41 µM) | 3.1 µg/mL (≈ 7.3 µM) | 5.9 µg/mL (≈ 13.9 µM)
